Test results published in US20260263547A1, “COMPOSITION FOR PREVENTING, AMELIORATING, OR TREATING ARTHRITIS, CONTAINING POTENTILLA CHINENSIS EXTRACT OR APIGENIN-7-O-GLUCURONIDE AS ACTIVE INGREDIENT” (BELABELBIO INC., priority 2023, published 2026).

Key:
[1] = system: MMP-1; experiment: PMA-induced MMP-1 secretion in SW-1353 chondrocytes (ELISA); format: cell-based, Human; settings: PMA 50 ng/mL, 24 hours, extract 50, 100, 200 ppm, apigenin-7-O-glucuronide 50, 100, 200 μM
Method: To evaluate the inhibitory efficacy of the extract of Potentilla chinensis from Example 1 and apigenin-7-O-glucuronide from Example 2 on PMA-induced MMP-1 production in chondrocytes, the amount of MMP-1 secreted was measured using a Human MMP-1 ELISA kit (ab100603, Abcam, USA). Specifically, SW-1353 chondrocytes were obtained from the American Type Culture Collection (ATCC, MD, USA) and cultured in DMEM medium containing 10% FBS and 1% antibiotic-antimycotic under 5% CO2 at 37° C. The cells were seeded into 6-well plates at a density of 2.0×10^5 cells/2.0 mL/well and allowed to adhere for 24 hours, then treated with PMA (50 ng/mL) in DMEM. The extract of Potentilla chinensis from Example 1 was treated at concentrations of 50, 100, and 200 ppm, and apigenin-7-O-glucuronide from Example 2 was treated at concentrations of 50, 100, and 200 μM, followed by incubation for 24 hours. After 24 hours, the amount of MMP-1 in the supernatant was quantified using the ELISA kit, and the results are shown in FIGS. 6A and 6B.

[2] = system: Collagen Type II Alpha 1; experiment: IL-1β-induced Collagen Type II Alpha 1 synthesis in SW-1353 chondrocytes (ELISA); format: cell-based, Human; settings: IL-1β 40 ng/ml, 24 hours, extract 50, 100, 200 ppm, apigenin-7-O-glucuronide 50, 100, 200 μM
Method: To evaluate the stimulatory efficacy of the extract of Potentilla chinensis from Example 1 and apigenin-7-O-glucuronide from Example 2 on IL-1β-induced Collagen Type II Alpha 1 synthesis in chondrocytes, the secretion of Collagen Type II Alpha 1 was measured using a Human Collagen II Alpha 1 ELISA kit (NBP2-75853, Novus, USA). Specifically, SW-1353 chondrocytes were obtained from the American Type Culture Collection (ATCC, MD, USA) and cultured in DMEM medium containing 10% FBS and 1% antibiotic-antimycotic under 5% CO2 at 37° C. The cells were seeded into 6-well plates at a density of 2.0×10^5 cells/2.0 mL/well and allowed to adhere for 24 hours, then treated with IL-1β (40 ng/ml) in DMEM. The extract of Potentilla chinensis from Example 1 was treated at concentrations of 50, 100, and 200 ppm, and apigenin-7-O-glucuronide from Example 2 was treated at concentrations of 50, 100, and 200 μM, followed by incubation for 24 hours. After 24 hours, the amount of Collagen II Alpha 1 in the supernatant was quantified using the ELISA kit, and the results are shown in FIGS. 9A and 9B.

[3] = system: COX-2 mRNA; experiment: LPS-induced COX-2 mRNA expression in RAW264.7 macrophages (real-time PCR); format: cell-based; settings: LPS 500 ng/mL, 24 hours, extract 50, 100, 200 ppm, apigenin-7-O-glucuronide 50, 100, 200 μM
Method: (§1) To confirm the inhibitory efficacy of the extract of Potentilla chinensis from Example 1 and apigenin-7-O-glucuronide from Example 2 on LPS-induced COX-2 mRNA expression, the expression level of COX-2 mRNA was measured using real-time polymerase chain reaction (PCR). Specifically, RAW264.7 macrophages were obtained from the American Type Culture Collection (ATCC, MD, USA) and cultured in DMEM medium containing 10% FBS and 1% antibiotic-antimycotic under 5% CO2 at 37° C. The cells were seeded into 6-well plates at a density of 8.0×10^5 cells/2.0 mL/well and allowed to adhere for 24 hours, then treated with LPS (500 ng/mL) in DMEM to induce inflammation. The extract of Potentilla chinensis from Example 1 was treated at concentrations of 50, 100, and 200 ppm, and apigenin-7-O-glucuronide from Example 2 was treated at concentrations of 50, 100, and 200 μM, followed by incubation for 24 hours. After 24 hours, COX-2 mRNA was extracted from the cells, synthesized into cDNA, and quantitative real-time PCR was performed using specific primers to evaluate the expression level of COX-2.

[4] = system: nitric oxide (NO) production; experiment: LPS-induced nitric oxide (NO) production in RAW264.7 macrophages (Griess reagent); format: cell-based; settings: LPS 500 ng/ml, 24 hours, extract 50, 100, 200 ppm, apigenin-7-O-glucuronide 50, 100, 200 μM
Method: To confirm the NO-reducing effect of the extract of Potentilla chinensis from Example 1 and apigenin-7-O-glucuronide from Example 2, an inflammatory response was induced with LPS and subsequent changes in NO were measured. Specifically, RAW264.7 macrophages were obtained from the American Type Culture Collection (ATCC, MD, USA) and cultured in DMEM (Dulbecco's Modified Eagle's Medium) containing 10% FBS and 1% antibiotic-antimycotic under 5% CO2 at 37° C. The cells were seeded into 6-well plates at a density of 8.0×10^5 cells/1.5 mL/well and allowed to adhere for 24 hours, then treated with LPS (500 ng/ml) to induce inflammation. The extract of Potentilla chinensis from Example 1 was added at concentrations of 50, 100, and 200 ppm, and apigenin-7-O-glucuronide from Example 2 was added at concentrations of 50, 100, and 200 μM, followed by incubation for 24 hours. Next, 100 μL of the culture supernatant was transferred to a 96-well plate, mixed with 100 μL of Griess reagent (0.1% N-(1-naphtyl)ethylenediamine, 1% sulfanilamide), and reacted for 10 minutes. The absorbance of the resulting azo-derivative was measured at 540 nm using a microplate reader (BioTek, Vermont, USA). The measured absorbance was converted into nitrite concentration using a standard curve prepared with sodium nitrite dilutions, and the amount of NO produced was calculated.

[5] = system: IL-1β mRNA; experiment: LPS-induced IL-1β mRNA expression in RAW264.7 macrophages (real-time PCR); format: cell-based; settings: LPS 500 ng/mL, 24 hours, extract 50, 100, 200 ppm, apigenin-7-O-glucuronide 50, 100, 200 μM
Method: as §1, with “Specifically,” for “To confirm the inhibitory efficacy of the extract of Potentilla chinensis from Example 1 and apigenin-7-O-glucuronide from Example 2 on LPS-induced COX-2 mRNA expression, the expression level of COX-2 mRNA was measured using real-time polymerase chain reaction (PCR). Specifically,”, “cells/1.5” for “cells/2.0”, “IL-1β” for “COX-2”, “IL-1β.” for “COX-2.”

[6] = system: MMP-9; experiment: PMA-induced MMP-9 secretion in SW-1353 chondrocytes (ELISA); format: cell-based, Human; settings: PMA 50 ng/mL, 24 hours, apigenin-7-O-glucuronide 50, 100, 200 μM
Method: To evaluate the inhibitory efficacy of apigenin-7-O-glucuronide from Example 2 on PMA-induced MMP-9 production in chondrocytes, the amount of MMP-9 secreted was measured using a Human MMP-9 ELISA kit (ab246539, Abcam, USA). Specifically, SW-1353 chondrocytes were obtained from the American Type Culture Collection (ATCC, MD, USA) and cultured in DMEM medium containing 10% FBS and 1% antibiotic-antimycotic under 5% CO2 at 37° C. The cells were seeded into 6-well plates at a density of 2.0×10^5 cells/2.0 mL/well and allowed to adhere for 24 hours, then treated with PMA (50 ng/mL) in DMEM. The extract of Potentilla chinensis from Example 1 was treated at concentrations of 50, 100, and 200 ppm, and apigenin-7-O-glucuronide from Example 2 was treated at concentrations of 50, 100, and 200 μM, followed by incubation for 24 hours. After 24 hours, the amount of MMP-1 in the supernatant was quantified using the ELISA kit, and the results are shown in FIG. 8.

For `O=C(O)[C@H]1O[C@@H](Oc2cc(O)c3c(=O)cc(-c4ccc(O)cc4)oc3c2)[C@H](O)[C@@H](O)[C@@H]1O` [apigenin-7-O-glucuronide], the “PMA-induced MMP-1 secretion” value [1] was “significantly inhibited MMP-1 secretion in a concentration-dependent manner”, the “IL-1β-induced Collagen Type II Alpha 1 synthesis” value [2] was “significantly increased Collagen Type II Alpha 1 synthesis in a concentration-dependent manner” and the “LPS-induced COX-2 mRNA expression” value [3] was “significantly inhibited COX-2 mRNA expression”. The “LPS-induced NO production” value [4] was “significantly inhibited NO production in a concentration-dependent manner”, the “LPS-induced IL-1β mRNA expression” value [5] was “significantly inhibited IL-1β mRNA expression in a concentration-dependent manner” and the “PMA-induced MMP-9 secretion” value [6] was “significantly inhibited MMP-9 secretion in a concentration-dependent manner”.
